Results taken from patent EP1434624B1, “2-AMINO-6-(2,4,5-SUBSTITUTED-PHENYL)-PYRIDINES FOR USE AS NITRIC OXIDE SYNTHASE INHIBITORS” (Pfizer Products Inc., priority 2001, dated 2003).
pIC50: −log10 of the molar value. Read-outs that look alike come from different tables or passages of the source.

Target: neuronal NOS (Homo sapiens, UniProt P29475)
Experiment: Inhibition of NO synthase activity by conversion of [3H]arginine to [3H]citrulline (crude enzyme lysate)
Format: biochemical
Experimental: The ability of the compounds of the present invention to inhibit neuronal NOS may be determined using the procedure described by Bredt and Snyder in Proc. Natl. Acad. Sci. U.S.A., 87, 682-685 (1990).
As indicated above, inhibition of NO synthase activity may be determined by conversion of [^3H]arginine to [^3H]citrulline as described by Bredt and Snyder in Proc. Natl. Acad. Sci. U.S.A., 87, 682-685 (1990), but with slight modification. Specifically, 10 uL of crude enzyme lysate and 10 uL of 350 nM [^3H]arginine are added to 100 uL of buffer containing 10 mM Hepes, 0.32 M sucrose, 0.75 mM NADPH, 0.1 mM EDTA, 0.63 mM CaCl2, 1 mM dithiothreitol, 30 nM calmodulin(CaM), 2 uM Flavin Adenin dinucleotie (FAD), 2 uM Flavin mononucleotide (FMN), 3 uM tetrahydrobiopterin (H4B) and trace bovine serum albumin in 96-well plate format. After incubation for 50 minutes at 30°C, assays are terminated by application to 75 uL BioRex-70 resin (H^+ form) and eluted with 90 uL of water. [^3H]citrulline may be quantified by liquid scintillation spectroscopy of the total flow-through.

neuronal NOS, sequence (P29475 whole entry): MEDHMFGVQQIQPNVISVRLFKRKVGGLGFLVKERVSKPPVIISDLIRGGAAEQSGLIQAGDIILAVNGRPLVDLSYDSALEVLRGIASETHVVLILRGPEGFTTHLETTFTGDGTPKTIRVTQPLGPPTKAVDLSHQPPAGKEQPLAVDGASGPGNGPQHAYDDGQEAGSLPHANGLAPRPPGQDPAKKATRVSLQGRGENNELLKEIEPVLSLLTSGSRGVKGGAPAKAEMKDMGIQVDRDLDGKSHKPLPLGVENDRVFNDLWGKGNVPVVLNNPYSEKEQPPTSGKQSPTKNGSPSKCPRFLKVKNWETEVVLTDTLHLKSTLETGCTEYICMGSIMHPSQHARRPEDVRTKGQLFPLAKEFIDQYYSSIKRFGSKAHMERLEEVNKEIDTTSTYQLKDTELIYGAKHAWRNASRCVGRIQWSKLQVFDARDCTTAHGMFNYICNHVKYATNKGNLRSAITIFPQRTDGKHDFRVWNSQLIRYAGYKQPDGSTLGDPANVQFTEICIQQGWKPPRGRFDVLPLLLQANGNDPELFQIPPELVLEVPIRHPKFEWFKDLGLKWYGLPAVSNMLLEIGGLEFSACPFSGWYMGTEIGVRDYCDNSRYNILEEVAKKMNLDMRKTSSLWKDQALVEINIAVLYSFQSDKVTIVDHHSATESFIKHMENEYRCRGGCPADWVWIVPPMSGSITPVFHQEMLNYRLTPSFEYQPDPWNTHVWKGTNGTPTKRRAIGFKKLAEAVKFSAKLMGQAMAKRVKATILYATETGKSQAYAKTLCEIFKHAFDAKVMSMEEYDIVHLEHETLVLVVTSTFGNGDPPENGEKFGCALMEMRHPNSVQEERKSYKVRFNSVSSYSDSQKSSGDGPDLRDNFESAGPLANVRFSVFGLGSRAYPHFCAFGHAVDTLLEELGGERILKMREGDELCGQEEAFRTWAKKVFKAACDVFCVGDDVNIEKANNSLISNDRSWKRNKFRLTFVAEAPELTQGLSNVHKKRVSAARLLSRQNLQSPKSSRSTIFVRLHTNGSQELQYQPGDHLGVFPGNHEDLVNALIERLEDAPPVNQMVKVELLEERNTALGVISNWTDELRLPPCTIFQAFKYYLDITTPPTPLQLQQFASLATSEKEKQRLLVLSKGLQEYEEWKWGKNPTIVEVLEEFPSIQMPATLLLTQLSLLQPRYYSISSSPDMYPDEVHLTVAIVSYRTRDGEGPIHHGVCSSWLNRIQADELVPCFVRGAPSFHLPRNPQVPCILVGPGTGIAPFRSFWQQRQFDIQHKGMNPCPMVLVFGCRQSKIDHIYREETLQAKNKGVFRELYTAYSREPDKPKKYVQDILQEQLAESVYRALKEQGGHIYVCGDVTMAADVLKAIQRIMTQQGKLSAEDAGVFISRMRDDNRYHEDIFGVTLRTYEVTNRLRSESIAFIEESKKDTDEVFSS

Row | pIC50 | pIC50 (crude enzyme lysate, [3H]arginine to [3H]citrulline, 50 minutes at 30°C, read-out: IC50 for inhibition of neuronal NOS) | SMILES
1 | 7.52 |  | CCc1cc(-c2cccc(N)n2)c(OC)cc1CNC [Example 3, 6-[4-(N-methylaminomethyl)-5-ethyl-2-methoxy-phenyl]-pyridin-2-ylamine]
2 |  | 7.44 | CCc1cc(-c2cccc(N)n2)c(OC)cc1OC1CNC1 [Example 1, 6-[4-(3-azetidinoxy)-5-ethyl-2-methoxy-phenyl]-pyridin-2-ylamine]
